According to ChEMBL document CHEMBL3593218, “4,6-Substituted-1,3,5-triazin-2(1H)-ones as monocyclic catalytic inhibitors of human DNA topoisomerase IIα targeting the ATP binding site” (Bioorg Med Chem, 2015):
Where “and” joins values, the source holds several entries; their conditions need not be identical. Equal values may be shown once. Each block holds one compound with its values, some of them ahead of it.

Legend:
[1] = biological target: T1, DNA topoisomerase 2-alpha (Homo sapiens, UniProt P11388); assay: Inhibition of human DNA topoisomerase IIalpha using plasmid pNO1 as a substrate after 30 mins
[2] = Lipophilicity, log P of the compound; assay type: physicochemical; conditions: octanol/water
[3] = biological target: T1, DNA topoisomerase 2-alpha; assay: Inhibition of human DNA topoisomerase IIalpha assessed as decatenation of kDNA at 31.5 uM after 90 mins by ethidium bromide staining; set-up: scale not given: the % may be the effect or the level left
[4] = biological target: T1, DNA topoisomerase 2-alpha; assay: Inhibition of human DNA topoisomerase IIalpha assessed as reduction in enzyme-catalyzed supercoiling of relaxed circular pBR322 DNA by measuring linear DNA level at 3.9 uM after 60 mins by agarose gel electrophoresis; set-up: scale not given: the % may be the effect or the level left
[5] = biological target: T1, DNA topoisomerase 2-alpha; assay: Inhibition of human DNA topoisomerase IIalpha ATPase activity assessed as residual ATP hydrolysis at 3.9 uM measured up to 60 mins
[6] = biological target: T1, DNA topoisomerase 2-alpha; assay: Inhibition of human DNA topoisomerase IIalpha assessed as decatenation of kDNA at 62.5 uM after 90 mins by ethidium bromide staining; set-up: scale not given: the % may be the effect or the level left
[7] = biological target: T1, DNA topoisomerase 2-alpha; assay: Inhibition of human DNA topoisomerase IIalpha assessed as reduction in enzyme-catalyzed supercoiling of relaxed circular pBR322 DNA by measuring linear DNA level at 15.625 uM after 60 mins by agarose gel electrophoresis; set-up: scale not given: the % may be the effect or the level left
[8] = biological target: T1, DNA topoisomerase 2-alpha; assay: Inhibition of human DNA topoisomerase IIalpha ATPase activity assessed as residual ATP hydrolysis at 500 uM measured up to 60 mins
[9] = biological target: T1, DNA topoisomerase 2-alpha; assay: Inhibition of human DNA topoisomerase IIalpha ATPase activity assessed as residual ATP hydrolysis at 62.5 uM measured up to 60 mins
[10] = biological target: T1, DNA topoisomerase 2-alpha; assay: Inhibition of human DNA topoisomerase IIalpha assessed as reduction in enzyme-catalyzed supercoiling of relaxed circular pBR322 DNA by measuring linear DNA level at 31.5 uM after 60 mins by agarose gel electrophoresis; set-up: scale not given: the % may be the effect or the level left
[11] = biological target: T1, DNA topoisomerase 2-alpha; assay: Inhibition of human DNA topoisomerase IIalpha ATPase activity assessed as residual ATP hydrolysis at 15.625 uM measured up to 60 mins
[12] = biological target: T1, DNA topoisomerase 2-alpha; assay: Inhibition of human DNA topoisomerase IIalpha assessed as reduction in enzyme-catalyzed supercoiling of relaxed circular pBR322 DNA by measuring linear DNA level at 62.5 uM after 60 mins by agarose gel electrophoresis; set-up: scale not given: the % may be the effect or the level left
[13] = biological target: T1, DNA topoisomerase 2-alpha; assay: Inhibition of human DNA topoisomerase IIalpha assessed as decatenation of kDNA at 3.9 uM after 90 mins by ethidium bromide staining; set-up: scale not given: the % may be the effect or the level left
[14] = biological target: T1, DNA topoisomerase 2-alpha; assay: Inhibition of human DNA topoisomerase IIalpha assessed as decatenation of kDNA at 15.625 uM after 90 mins by ethidium bromide staining; set-up: scale not given: the % may be the effect or the level left
[15] = biological target: T1, DNA topoisomerase 2-alpha; assay: Inhibition of human DNA topoisomerase IIalpha ATPase activity assessed as residual ATP hydrolysis at 31.5 uM measured up to 60 mins
[16] = biological target: T1, DNA topoisomerase 2-alpha; assay: Inhibition of human DNA topoisomerase IIalpha assessed as reduction in enzyme-catalyzed supercoiling of relaxed circular pBR322 DNA by measuring linear DNA level at 31.5 uM after 60 mins by agarose gel electrophoresis in presence of 50 uM of etoposide; set-up: scale not given: the % may be the effect or the level left
[17] = biological target: T1, DNA topoisomerase 2-alpha; assay: Inhibition of human DNA topoisomerase IIalpha assessed as decatenation of kDNA at 500 uM after 90 mins by ethidium bromide staining; set-up: scale not given: the % may be the effect or the level left
[18] = biological target: T1, DNA topoisomerase 2-alpha; assay: Inhibition of human DNA topoisomerase IIalpha assessed as reduction in enzyme-catalyzed supercoiling of relaxed circular pBR322 DNA by measuring linear DNA level at 3.9 uM after 60 mins by agarose gel electrophoresis in presence of 50 uM of etoposide; set-up: scale not given: the % may be the effect or the level left
[19] = biological target: T1, DNA topoisomerase 2-alpha; assay: Inhibition of human DNA topoisomerase IIalpha ATPase activity assessed as residual ATP hydrolysis at 125 uM measured up to 60 mins
[20] = biological target: T1, DNA topoisomerase 2-alpha; assay: Inhibition of human DNA topoisomerase IIalpha assessed as reduction in enzyme-catalyzed supercoiling of relaxed circular pBR322 DNA by measuring linear DNA level at 31.5 uM after 60 mins by agarose gel electrophoresis in presence of 62.5 uM of etoposide; set-up: scale not given: the % may be the effect or the level left
[21] = biological target: T1, DNA topoisomerase 2-alpha; assay: Inhibition of human DNA topoisomerase IIalpha assessed as reduction in enzyme-catalyzed supercoiling of relaxed circular pBR322 DNA by measuring linear DNA level at 125 uM after 60 mins by agarose gel electrophoresis in presence of 50 uM of etoposide; set-up: scale not given: the % may be the effect or the level left
[22] = biological target: T1, DNA topoisomerase 2-alpha; assay: Inhibition of human DNA topoisomerase IIalpha assessed as reduction in enzyme-catalyzed supercoiling of relaxed circular pBR322 DNA by measuring linear DNA level at 500 uM after 60 mins by agarose gel electrophoresis; set-up: scale not given: the % may be the effect or the level left
[23] = biological target: T1, DNA topoisomerase 2-alpha; assay: Inhibition of human DNA topoisomerase IIalpha assessed as reduction in enzyme-catalyzed supercoiling of relaxed circular pBR322 DNA by measuring linear DNA level at 125 uM after 60 mins by agarose gel electrophoresis in presence of 62.5 uM of etoposide; set-up: scale not given: the % may be the effect or the level left
[24] = biological target: T1, DNA topoisomerase 2-alpha; assay: Inhibition of human DNA topoisomerase IIalpha assessed as reduction in enzyme-catalyzed supercoiling of relaxed circular pBR322 DNA by measuring linear DNA level after 60 mins by agarose gel electrophoresis
[25] = biological target: T1, DNA topoisomerase 2-alpha; assay: Inhibition of human DNA topoisomerase IIalpha assessed as decatenation of kDNA after 90 mins by ethidium bromide staining
[26] = biological target: T1, DNA topoisomerase 2-alpha; assay: Inhibition of human DNA topoisomerase IIalpha assessed as reduction in enzyme-catalyzed supercoiling of relaxed circular pBR322 DNA by measuring linear DNA level at 125 uM after 60 mins by agarose gel electrophoresis; set-up: scale not given: the % may be the effect or the level left
[27] = biological target: T1, DNA topoisomerase 2-alpha; assay: Inhibition of human DNA topoisomerase IIalpha assessed as decatenation of kDNA at 125 uM after 90 mins by ethidium bromide staining; set-up: scale not given: the % may be the effect or the level left
[28] = biological target: T1, DNA topoisomerase 2-alpha; assay: Inhibition of human DNA topoisomerase IIalpha assessed as reduction in enzyme-catalyzed supercoiling of relaxed circular pBR322 DNA by measuring linear DNA level at 50 uM after 60 mins by agarose gel electrophoresis; set-up: scale not given: the % may be the effect or the level left
[29] = biological target: T1, DNA topoisomerase 2-alpha; assay: Inhibition of human DNA topoisomerase IIalpha assessed as reduction in enzyme-catalyzed supercoiling of relaxed circular pBR322 DNA by measuring linear DNA level at 3.9 uM after 60 mins by agarose gel electrophoresis in presence of 62.5 uM of etoposide; set-up: scale not given: the % may be the effect or the level left
[30] = biological target: T1, DNA topoisomerase 2-alpha; assay: Inhibition of human DNA topoisomerase IIalpha assessed as reduction in enzyme-catalyzed supercoiling of relaxed circular pBR322 DNA by measuring linear DNA level at 500 uM after 60 mins by agarose gel electrophoresis in presence of 62.5 uM of etoposide; set-up: scale not given: the % may be the effect or the level left
[31] = biological target: T1, DNA topoisomerase 2-alpha; assay: Inhibition of human DNA topoisomerase IIalpha assessed as reduction in enzyme-catalyzed supercoiling of relaxed circular pBR322 DNA by measuring linear DNA level at 500 uM after 60 mins by agarose gel electrophoresis in presence of 50 uM of etoposide; set-up: scale not given: the % may be the effect or the level left

T1 sequence (P11388 whole entry): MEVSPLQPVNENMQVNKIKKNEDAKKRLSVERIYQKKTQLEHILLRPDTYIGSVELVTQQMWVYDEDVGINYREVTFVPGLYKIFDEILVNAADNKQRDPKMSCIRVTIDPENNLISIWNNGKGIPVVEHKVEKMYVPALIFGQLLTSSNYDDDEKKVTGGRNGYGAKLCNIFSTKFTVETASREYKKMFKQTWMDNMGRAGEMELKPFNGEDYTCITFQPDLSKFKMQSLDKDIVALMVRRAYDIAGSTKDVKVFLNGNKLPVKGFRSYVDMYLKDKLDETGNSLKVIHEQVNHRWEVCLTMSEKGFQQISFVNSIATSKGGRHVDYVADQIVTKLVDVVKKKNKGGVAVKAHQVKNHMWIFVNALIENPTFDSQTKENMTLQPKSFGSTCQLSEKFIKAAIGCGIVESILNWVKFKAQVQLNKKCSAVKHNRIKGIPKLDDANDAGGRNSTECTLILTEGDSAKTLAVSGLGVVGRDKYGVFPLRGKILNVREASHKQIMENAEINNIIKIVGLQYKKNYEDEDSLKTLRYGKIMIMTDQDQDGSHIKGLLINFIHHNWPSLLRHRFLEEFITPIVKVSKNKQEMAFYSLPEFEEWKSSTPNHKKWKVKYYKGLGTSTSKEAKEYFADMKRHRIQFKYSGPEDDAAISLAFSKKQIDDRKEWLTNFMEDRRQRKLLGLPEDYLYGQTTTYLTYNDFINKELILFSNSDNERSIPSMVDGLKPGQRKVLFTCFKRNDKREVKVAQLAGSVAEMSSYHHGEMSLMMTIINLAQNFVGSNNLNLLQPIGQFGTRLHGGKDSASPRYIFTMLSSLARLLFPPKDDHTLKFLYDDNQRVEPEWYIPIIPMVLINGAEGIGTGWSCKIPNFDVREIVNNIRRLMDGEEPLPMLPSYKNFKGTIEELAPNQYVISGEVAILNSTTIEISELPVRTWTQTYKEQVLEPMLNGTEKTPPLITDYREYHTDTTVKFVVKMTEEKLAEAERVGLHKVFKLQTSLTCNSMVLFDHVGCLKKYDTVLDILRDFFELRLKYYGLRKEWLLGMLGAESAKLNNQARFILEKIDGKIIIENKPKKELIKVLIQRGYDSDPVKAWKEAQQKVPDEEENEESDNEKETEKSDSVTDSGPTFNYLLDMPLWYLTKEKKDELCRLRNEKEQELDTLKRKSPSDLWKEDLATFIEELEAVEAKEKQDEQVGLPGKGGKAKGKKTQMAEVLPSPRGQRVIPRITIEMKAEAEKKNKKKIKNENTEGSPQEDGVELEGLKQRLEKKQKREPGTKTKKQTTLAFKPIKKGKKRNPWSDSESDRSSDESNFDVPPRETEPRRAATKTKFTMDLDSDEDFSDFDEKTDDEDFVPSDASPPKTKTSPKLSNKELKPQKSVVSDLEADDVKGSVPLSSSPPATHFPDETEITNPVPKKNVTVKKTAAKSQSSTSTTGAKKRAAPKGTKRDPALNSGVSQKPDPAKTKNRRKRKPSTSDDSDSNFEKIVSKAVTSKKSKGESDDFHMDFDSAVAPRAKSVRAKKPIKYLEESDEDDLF

Structure (SMILES): O=c1nc(SCc2ccccc2)nc(SCc2cccc([N+](=O)[O-])c2)[nH]1
- IC50 [1]: 488 µM

Structure (SMILES): O=c1nc(SCc2ccccc2)nc(SCC2CCC2)[nH]1
- IC50 [1]: > 1000 µM

Structure (SMILES): COc1ccc(CNc2nc(Cl)nc(Nc3ccccc3CCO)n2)cc1
- IC50 [1]: > 1000 µM

Structure (SMILES): O=c1nc(-c2cccc([N+](=O)[O-])c2)nc(S)[nH]1
- IC50 [1]: > 1000 µM

Structure (SMILES): COc1ccc(CNc2nc(Cl)nc(Cl)n2)cc1
- IC50 [1]: > 1000 µM

Structure (SMILES): COc1nc(N[C@H](CCC(=O)O)C(=O)O)nc(OC)n1
- IC50 [1]: > 1000 µM

Structure (SMILES): COc1ccc(CSc2nc(SCc3ccccc3)nc(=O)[nH]2)cc1
- IC50 [1]: > 1000 µM

Structure (SMILES): O=c1nc(SCc2ccccc2)nc(SCc2ccccc2Cl)[nH]1
- logP [2]: 3.3
- IC50 [1]: 94.1 µM

Structure (SMILES): CC(C(C)N1CC(=O)NC(=O)C1)N1CC(=O)NC(=O)C1 (stereo not drawn)
- Activity [3]: 10.8%
- Activity [4]: 1.7%
- Activity [5]: 0%
- Activity [6]: 6.05%
- Activity [7]: 3.1%
- Activity [8]: 0% and 18.7%
- Activity [9]: 0%
- Activity [10]: 2.51%
- Activity [11]: 0%
- Activity [12]: 2.1%
- Activity [13]: 77.4%
- Activity [14]: 18.2%
- Activity [15]: 0%

Structure (SMILES): O=c1nc(SCc2ccccc2)nc(SCc2ccccc2F)[nH]1
- Activity [16]: 33.5%
- Activity [17]: 0.115%
- Activity [18]: 34.3%
- Activity [3]: 92.6%
- Activity [19]: 0%
- Activity [20]: 18.5%
- Activity [21]: 9.2%
- Activity [4]: 3%
- Activity [5]: 86.9%
- Activity [22]: 2.3%
- Activity [23]: 16.3%
- Activity [7]: 3.1%
- Activity [8]: 0%
- inhibition [24]: Dose-dependent effect
- Activity [10]: 2.3%
- logP [2]: 2.7
- inhibition [25]: Dose-dependent effect
- Activity [26]: 1.6%
- Activity [27]: 8.55%
- Activity [28]: 34.6%
- Activity [29]: 20.6%
- Activity [12]: 2.1% and 18.1%
- Activity [30]: 1.4%
- IC50 [1]: 72.5 µM
- Activity [13]: 91.5%
- Activity [31]: 5.3%
- Activity [15]: 93.7%

Structure (SMILES): CCCSc1nc(SCc2ccccc2)[nH]c(=O)n1
- IC50 [1]: > 1000 µM

Structure (SMILES): OCCc1ccccc1Nc1nc(Cl)nc(Cl)n1
- IC50 [1]: > 1000 µM

Structure (SMILES): O=c1nc(SCc2ccccc2)nc(S)[nH]1
- IC50 [1]: > 1000 µM

Structure (SMILES): COc1nc(Nc2ccccc2C(=O)N[C@@H](C)C(=O)OCc2ccccc2)nc(N[C@@H](C)C(=O)OCc2ccccc2)n1
- IC50 [1]: > 1000 µM

Second part, the compound after the results:

- IC50 [1]: > 1000 µM
Structure (SMILES): COc1nc(OC)nc(Sc2ccccc2C(=O)N[C@H](CCC(=O)OCc2ccccc2)C(=O)OCc2ccccc2)n1

- IC50 [1]: > 1000 µM
Structure (SMILES): O=C(O)CSC1N=C(SCc2ccccc2)NC(=O)N1 (stereo not drawn)

- IC50 [1]: > 1000 µM
Structure (SMILES): COc1nc(N[C@H](CCC(=O)OCc2ccccc2)C(=O)OCc2ccccc2)nc(OC)n1

- IC50 [1]: > 1000 µM
Structure (SMILES): Clc1nc(Cl)nc(Nc2ccccc2Br)n1

- IC50 [1]: > 1000 µM
Structure (SMILES): O=C1NC(SCc2ccccc2)=NC(Sc2ccccc2)N1 (stereo not drawn)

- IC50 [1]: > 1000 µM
Structure (SMILES): COc1ccccc1CSc1nc(SCc2ccccc2)nc(=O)[nH]1

- IC50 [1]: > 1000 µM
Structure (SMILES): O=C(O)c1ccccc1Sc1nc(Cl)nc(Cl)n1

- IC50 [1]: > 1000 µM
Structure (SMILES): CCc1ccccc1Nc1nc(Cl)nc(Cl)n1

- IC50 [1]: 147 µM
Structure (SMILES): O=c1nc(SCc2ccccc2)nc(SCc2ccc(F)cc2)[nH]1

- IC50 [1]: > 1000 µM
Structure (SMILES): COC(=O)c1ccccc1Nc1nc(Cl)nc(Cl)n1
